These results are taken from patent US12297296B2, “Nano small peptide and its use in preparation of drugs for treating and preventing fundus vascular diseases” (FUTU Biotech Co., Ltd., priority 2021, dated 2025).

Assay [1] concerns the target T1, sSema4D (Mus musculus, UniProt O09126).
T1 sequence (O09126 24-733 limits assumed): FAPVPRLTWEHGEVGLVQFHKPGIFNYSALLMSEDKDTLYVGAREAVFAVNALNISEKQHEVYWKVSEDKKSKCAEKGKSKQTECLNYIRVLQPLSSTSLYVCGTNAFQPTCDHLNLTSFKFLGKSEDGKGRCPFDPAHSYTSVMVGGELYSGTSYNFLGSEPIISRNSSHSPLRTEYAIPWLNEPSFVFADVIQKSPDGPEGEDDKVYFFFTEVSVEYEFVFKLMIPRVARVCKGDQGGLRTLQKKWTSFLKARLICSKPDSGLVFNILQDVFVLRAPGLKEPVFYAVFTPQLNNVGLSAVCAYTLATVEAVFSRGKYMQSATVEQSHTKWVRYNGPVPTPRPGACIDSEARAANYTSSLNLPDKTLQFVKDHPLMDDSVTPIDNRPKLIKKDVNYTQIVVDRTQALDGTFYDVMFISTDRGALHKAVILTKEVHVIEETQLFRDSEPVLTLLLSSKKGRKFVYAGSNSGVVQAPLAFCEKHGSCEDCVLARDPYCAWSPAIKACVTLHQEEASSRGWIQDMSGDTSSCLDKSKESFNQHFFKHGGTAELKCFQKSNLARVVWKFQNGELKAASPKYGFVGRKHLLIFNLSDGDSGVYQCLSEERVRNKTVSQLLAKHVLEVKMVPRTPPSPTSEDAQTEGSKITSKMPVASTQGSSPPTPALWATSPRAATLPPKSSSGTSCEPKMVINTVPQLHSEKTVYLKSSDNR
As to the kind of experiment: ELISA of sSema4D in vitreous humor after eye drops. In kind it is in vivo. The arrangement: release and collect the vitreous humor; from tissue; host or cells: vitreous humor of C57 mice. The settings on record: C57 mice, 10 μL of 20 μM eye drops, morning and evening, 3 days. From the text: In this example, 8-week-old C57 male mice were used, with ten data points in each group, and each data point was the average of the experimental results of 5 mice.
The water on the eyeballs was then removed with filter paper to release and collect the vitreous humor. ELISA kit (Shanghai Yuanmu Biotechnology Co., Ltd.) was used to detect the expression of sSema4D protein in vitreous humor.
Control group was instilled with the same volume of PBS solution; vehicle group was instilled the same volume of artificial tears (Systane).
(In general: In an ELISA, binding on a coated surface is turned into a signal by an enzyme label.)

In assay [2] the target is T1, sSema4D. Put plainly: sSema4D concentration in endothelial cell culture supernatant (ELISA). Type of assay: cell-based. The arrangement: the free Sema4D protein after enzyme cleavage of Sema4D, that is, the sSema4D protein purchased from R&D Systems Company; purchased R&D Systems. The settings on record: endothelial cells; for sSema4D concentration over the time course: 20 μM, 12, 24, 36, and 48 h; for sSema4D concentration: sSema4D 1600 ng/mL, peptide 20 μM, antibody 2 μg/μL. As to the method: Endothelial cells were uniformly seeded in 6-well cell culture plates and cultured in a 5% CO2 incubator at 37° C. for 24 h. The nano small peptides FH, FG, DMSO, and Sema4D neutralizing antibody (BMA-12) were added to the medium (the concentration of sSema4D in the medium was 1600 ng/mL) to ensure that the final concentration of FH and FG was 20 μM, and the final concentration of the sSema4D neutralizing antibody (BMA-12) was 2 μg/μL, an equal volume of DMSO was then added as a control, and the culture plates were cultured in an incubator for 12, 24, 36, and 48 h, respectively. The cell culture medium was then collected and centrifuged. The supernatant was taken and the expression of Sema4D protein in the supernatant was detected using an ELISA kit (Shanghai Yuanmu Biotechnology Co., Ltd.).

Assay [3] relates to mouse brain microvascular endothelial cells. Put plainly: Endothelial cell leakage (transmembrane resistance). Type of assay: cell-based. The settings on record: 20 μM, 36 h; for sSema4D-induced endothelial cell leakage: sSema4D 1600 ng/mL. As to the method: A layer of fibronectin was first applied to coat the upper layer of a 24-well transwell chamber (0.4 um) and incubated at room temperature for 1 h; after coating, the mouse brain microvascular endothelial cells were seeded, and cultured for 5 days until the cells were full, and then FH (20 μM), FG (20 μM), and Sema4D neutralizing antibody (BMA-12) (2 μg/μL) were added to the medium (the concentration of sSema4D in the medium was 1600 ng/mL), respectively. An equal volume of DMSO was added as a control, and ECM was used as a blank control. After incubation for 36 h, the resistance value was measured by a cell transmembrane resistance measuring instrument.

Assay [4] concerns OIR model mice. Put plainly: Fundus angiogenesis in OIR model, Isolectin B4 confocal detection. Type of assay: in vivo, mouse. The conditions noted are these: for percentage of abnormal blood vessels in the total retinal area (proportion of new blood vessels): 2 nmol injected into the vitreous on day 12, read on day 17. The method, then: Treatment group (OIR): After giving birth, 3-4 month old C57BL/6 mother mice were placed in an oxygen chamber with 75% oxygen together with 7 day old young mice, and the young mice and the mother mice were taken out on the 12th day of birth of the young mice. Immediately after the young mice were anesthetized, 2 nmol of FH, 2 nmol of FG, and 1 μg of Sema4D neutralizing antibody (BMA-12) (BMA-12, i.e., anti-Sema4D) were injected into the vitreous, and an equal volume of DMSO was used as a control. The young mice were then further raised in normal air for 5 days; the young mice were anesthetized on the 17th day of birth, and after cardiac perfusion with normal saline, the eyeballs were separated and then fixed, stained with Isolectin B4 overnight at 4° C., flatly spread on a glass slide, and photographed.
Control group (Normal): Young mice, grown with normoxia, were anesthetized on the 17th day of birth. After cardiac perfusion with normal saline, the eyeballs were taken out, and the retinas were peeled off and then fixed with 4% paraformaldehyde, stained with Isolectin B4 at 4° C. overnight, flatly spread on a glass slide, and photographed.
The results are shown in A in FIGS. 4A and 4B. Laser confocal was carried out to detect retinal angiogenesis, and ImageJ was carried out to calculate the ratio of retinal neovascularization clusters to the entire retinal area, that is, the proportion of new blood vessels. […] It can be seen from FIG. 4A that the treatment effect of FH is the best.

Assay [5] concerns primary mouse brain microvascular pericytes. As to the kind of experiment: Pericyte migration (transwell experiment). In kind it is cell-based. The settings on record: 20 μM, 36 h; for sSema4D-induced pericyte migration: sSema4D 1600 ng/mL. As to the method:
The primary mouse brain microvascular pericytes were starved with 0.5% PM for 4 to 6 h. The pericytes were seeded in the upper layer of a 24-well transwell chamber (8 μm). The medium containing FH (20 μM), FG (20 μM), and Sema4D neutralizing antibody (BMA-12) (2 μg/μL) (the concentration of sSema4D in the medium is 1600 ng/mL) was added to the lower chamber, and an equal volume of DMSO was added as control. The cells were incubated in a 5% CO2 incubator at 37° C. for 36 h. 36 h later, the cells on the bottom of the chamber were fixed with 4% paraformaldehyde and stained with crystal violet, and the pericytes that penetrated to the bottom of the chamber were counted under a microscope.

Where a SMILES comes first, the peptide text is derived from it. [ ]: non-standard residue; d: D form. The star is where a group is joined. ξ: configuration not given here. Palmitoyl = CCCCCCCCCCCCCCCC(=O)*; ξF = NC(Cc1ccccc1)C(=O)O

As for `CCCCCCCCCCCCCCCC(=O)NC(Cc1ccccc1)C(=O)N[C@@H](Cc1ccccc1)C(=O)N[C@H](C(=O)N[C@@H](CC(C)C)C(=O)N[C@@H](CCCCN)C(=O)N[C@@H](CCCCN)C(=O)N[C@@H](CCC(N)=O)C(=O)N[C@@H](CCCCN)C(=O)N[C@@H](CCCNC(=N)N)C(=O)N1CCC[C@H]1C(=O)N[C@@H](CCCNC(=N)N)C(=O)N[C@@H](Cc1c[nH]cn1)C(=O)O)C(C)C` (stereo in doubt) [FH, hexadecanoyl-FFVLK-KQKRPRH], in assay [1], the “expression of sSema4D protein in the vitreous humor” value is “reduce the expression of sSema4D protein in the vitreous humor”. The “sSema4D concentration over the time course” value in assay [2] is listed as “can sustainably reduce the concentration of sSema4D”. Further, in assay [2] (24 h), the sSema4D concentration result is “can reduce the sSema4D concentration”. Also, the sSema4D concentration result in assay [2] (36 h) is “can still reduce the sSema4D concentration”. In addition, the “effect on sSema4D concentration compared with FG” value in assay [2] (within the same action time) is reported as “better than that of FG”. Besides, in assay [3], the “effect on endothelial cell leakage compared with Sema4D neutralizing antibody (BMA-12, 2 μg/μL)” value was “comparable” and the “sSema4D-induced endothelial cell leakage” value is listed as “significantly inhibit”. Further, the “percentage of abnormal blood vessels in the total retinal area (proportion of new blood vessels)” value in assay [4] is reported as “reduce the percentage of abnormal blood vessels in the total retinal area”. Further, in assay [4] (2 nmol intravitreal), the “treatment effect on fundus angiogenesis compared with Sema4D neutralizing antibody (BMA-12, 1 μg)” value is “comparable” and the “treatment effect on fundus angiogenesis, ranking among treatments (FIG. 4A)” value is recorded as “the best”. Further, in assay [5], the “inhibition of pericyte migration compared with Sema4D neutralizing antibody (BMA-12, 2 μg/μL)” value is given as “more effective” and the sSema4D-induced pericyte migration result is listed as “significantly inhibit”.
Consider `CCCCCCCCCCCCCCCC(=O)NC(Cc1ccccc1)C(=O)N[C@@H](Cc1ccccc1)C(=O)N[C@H](C(=O)N[C@@H](CC(C)C)C(=O)N[C@@H](CCCCN)C(=O)N[C@@H](CCCCN)C(=O)N[C@@H](CC(N)=O)C(=O)N[C@@H](CCCCN)C(=O)N[C@@H](C)C(=O)N[C@@H](C)C(=O)N[C@@H](CCCCN)C(=O)NCC(=O)O)C(C)C` (stereo partly shown) [FG] (Palmitoyl-[ξF]FVLKKNKAAKG-OH), for which the “expression of sSema4D protein in the vitreous humor” value in assay [1] is “reduce the expression of sSema4D protein in the vitreous humor”. Besides, the “sSema4D concentration over the time course” value in assay [2] is recorded as “can sustainably reduce the concentration of sSema4D”. Moreover, in assay [3], the “effect on endothelial cell leakage compared with Sema4D neutralizing antibody (BMA-12, 2 μg/μL)” value is recorded as “comparable” and the “sSema4D-induced endothelial cell leakage” value is given as “significantly inhibit”. In addition, the “percentage of abnormal blood vessels in the total retinal area (proportion of new blood vessels)” value in assay [4] is given as “reduce the percentage of abnormal blood vessels in the total retinal area”. Besides, the “treatment effect on fundus angiogenesis compared with Sema4D neutralizing antibody (BMA-12, 1 μg)” value in assay [4] (2 nmol intravitreal) is “comparable”. Besides, the sSema4D-induced pericyte migration result in assay [5] is listed as “significantly inhibit”.
